From paper PMC4657974, “Positive Allosteric Modulation of Kv Channels by Sevoflurane: Insights into the Structural Basis of Inhaled Anesthetic Action” (PLoS ONE, 2015)
pEC50, pIC50: −log10 of the molar value.

Assays:
Assay type in all cases: cell-based
K-Shaw2 [1] = biological target: T1, K-Shaw2 (Drosophila melanogaster, UniProt P17972); experiment: two-electrode voltage clamp, Xenopus oocytes, Hill fit; conditions: inhibition; pH 7.4; 21-23 °C; voltage not given; read-out: K 1; cited from earlier work
T1 construct: gene Shaw; full-length channel, homotetramer, expressed in Xenopus oocytes from cRNA
T1 sequence (P17972 1-498): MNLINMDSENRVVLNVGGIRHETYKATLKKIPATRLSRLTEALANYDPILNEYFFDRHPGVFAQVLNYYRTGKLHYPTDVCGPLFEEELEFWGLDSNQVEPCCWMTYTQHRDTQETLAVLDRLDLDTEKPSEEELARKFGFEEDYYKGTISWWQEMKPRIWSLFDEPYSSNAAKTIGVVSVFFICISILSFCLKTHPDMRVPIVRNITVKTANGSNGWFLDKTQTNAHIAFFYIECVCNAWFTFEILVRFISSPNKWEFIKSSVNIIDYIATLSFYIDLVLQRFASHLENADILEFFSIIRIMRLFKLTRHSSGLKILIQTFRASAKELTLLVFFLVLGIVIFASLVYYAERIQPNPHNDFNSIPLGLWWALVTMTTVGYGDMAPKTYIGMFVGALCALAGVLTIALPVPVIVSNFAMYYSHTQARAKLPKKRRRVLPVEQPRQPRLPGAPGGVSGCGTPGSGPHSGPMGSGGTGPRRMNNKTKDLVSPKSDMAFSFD
Description: two-electrode voltage clamp, Xenopus oocytes, Hill fit on K-Shaw2

ΔT1-K-Shaw2 = biological target: T2, ΔT1-K-Shaw2 (Drosophila melanogaster, UniProt P17972, DEL2-155); experiment: as above; conditions: read-out: K 1
T2 construct: gene Shaw; T1 domain deleted (lacks residues 2-155), homotetramer, expressed in Xenopus oocytes
T2 sequence (P17972 with tags, fused parts or gaps DEL2-155): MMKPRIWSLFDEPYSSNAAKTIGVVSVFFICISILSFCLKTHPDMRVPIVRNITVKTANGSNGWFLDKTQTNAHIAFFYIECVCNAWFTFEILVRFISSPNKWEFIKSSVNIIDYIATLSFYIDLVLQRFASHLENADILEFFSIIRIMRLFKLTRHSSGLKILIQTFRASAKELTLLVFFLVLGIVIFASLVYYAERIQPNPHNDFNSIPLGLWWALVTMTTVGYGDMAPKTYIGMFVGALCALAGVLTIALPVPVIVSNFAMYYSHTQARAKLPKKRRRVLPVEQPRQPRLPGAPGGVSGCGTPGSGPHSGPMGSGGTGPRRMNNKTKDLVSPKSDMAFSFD
Description: two-electrode voltage clamp, Xenopus oocytes, Hill fit on ΔT1-K-Shaw2

K-Shaw2 [2] = biological target: T1, K-Shaw2; experiment: two-electrode voltage clamp, Xenopus oocytes, double Hill fit; conditions: read-out: K 1
Description: two-electrode voltage clamp, Xenopus oocytes, double Hill fit on K-Shaw2 | Solid line is the best-fit double Hill equation to the K-Shaw2 data

Q: With `CC(C)c1cccc(C(C)C)c1O` [propofol] as the molecule, how does the pIC50 (K-Shaw2 [1]) read?
A: 4.22

Q: With `CCCCO` [n-butanol] as the molecule, how does the pIC50 (ΔT1-K-Shaw2) read?
A: 1.79

Q: And the pIC50 (K-Shaw2 [1])?
A: 2.00

Q: With `FCOC(C(F)(F)F)C(F)(F)F` [sevoflurane] as the molecule, how does the pEC50 (K-Shaw2 [2]) read?
A: 4.10

Q: With `FC(F)OC(Cl)C(F)(F)F` (centres unmarked) [isoflurane] as the molecule, how does the pIC50 (K-Shaw2 [1]) read?
A: 2.77

Q: With `ClC(Cl)Cl` [chloroform] as the molecule, how does the pIC50 (K-Shaw2 [1]) read?
A: 3.15

Q: With `FC(F)(F)C(Cl)Br` (centres unmarked) [halothane] as the molecule, how does the pIC50 (ΔT1-K-Shaw2) read?
A: 3.42

Q: What about the pIC50 (K-Shaw2 [1]) of the same molecule?
A: 3.59
